Experimental data: PubChem BioAssay (NCI)
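Values below derive from 48-hour exposures of cells grown in 96-well plates, with endpoints linearly interpolated between the two concentrations bracketing the appropriate inhibition level. GI50 = concentration required for 50% inhibition of growth. Definition used: TGI = concentration required for complete inhibition of growth.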

Key:
Assay in all cases: DTP human tumour cell line panel, 48 h
OVCAR-4 ovarian = test system: OVCAR-4 ovarian
TK-10 renal = test system: TK-10 renal
SF-268 CNS = test system: SF-268 CNS
HCT-15 colon = test system: HCT-15 colon
MOLT-4 leukemia = test system: MOLT-4 leukemia
KM12 colon = test system: KM12 colon
UO-31 renal = test system: UO-31 renal
SK-MEL-2 melanoma = test system: SK-MEL-2 melanoma
OVCAR-8 ovarian = test system: OVCAR-8 ovarian
SF-539 CNS = test system: SF-539 CNS

Compound	TGI (OVCAR-4 ovarian) [µM]	TGI (TK-10 renal) [µM]	TGI (SF-268 CNS) [µM]	TGI (HCT-15 colon) [µM]	TGI (MOLT-4 leukemia) [µM]	TGI (KM12 colon) [µM]	TGI (UO-31 renal) [µM]	TGI (SK-MEL-2 melanoma) [µM]	TGI (OVCAR-8 ovarian) [µM]	TGI (SF-539 CNS) [µM]	GI50 (OVCAR-4 ovarian) [µM]	GI50 (TK-10 renal) [µM]	GI50 (SF-268 CNS) [µM]	GI50 (HCT-15 colon) [µM]	GI50 (MOLT-4 leukemia) [µM]	GI50 (KM12 colon) [µM]	GI50 (UO-31 renal) [µM]	GI50 (SK-MEL-2 melanoma) [µM]	GI50 (OVCAR-8 ovarian) [µM]	GI50 (SF-539 CNS) [µM]
O=S(=O)(O)c1ccc2c(N=Nc3ccc(Sc4ccc(N=Nc5c(O)ccc6cc(S(=O)(=O)O)ccc56)cc4)cc3)c(O)ccc2c1	> 100	> 100	> 100	> 100	> 100	> 100	> 100	> 100	> 100	> 100	–	–	–	–	–	–	–	–	–	–
CN(C)CCNC(=O)c1c(O)ccc2c1c1c(n2CCc2ccccc2)C(=O)c2ccccc2C1=O	24.6	18.4	15	15.6	16.2	15.9	13.8	10.7	23.4	11.1	–	–	–	–	–	–	–	–	–	–
C=CCNC(=S)/N=C/C(C(=O)Nc1ccccc1C)=C(\C)O	> 100	> 100	> 100	> 100	> 100	> 100	> 100	> 100	> 100	> 100	–	–	–	–	–	–	–	–	–	–
CC(C)=NOC(=O)Nc1cccc2c1OCO2	> 100	> 100	> 100	> 100	> 100	> 100	> 100	> 100	> 100	> 100	–	–	–	–	–	–	–	–	–	–
O=C1c2cc([N+](=O)[O-])sc2C(=O)c2c([N+](=O)[O-])csc21	2.06	3	0.994	4.41	0.484	2.6	3.37	3.77	3.04	1.17	–	–	–	–	–	–	–	–	–	–
COC(=O)c1cc(/C=C\c2cc(OC)ccc2OC)ccc1OC	> 100	> 100	> 100	> 100	41.7	> 100	75.3	74.2	> 100	> 100	–	–	–	–	–	–	–	–	–	–
CCOC(=O)C1=C(C)N(Cc2ccccc2)C2(O)C=CC(=O)C3=C(O)c4ccccc4C(=O)C312 (stereo not given)	38.7	32.5	23.7	22	> 100	28.5	21.5	30.4	39	32.6	–	–	–	–	–	–	–	–	–	–
CC/C(N)=N\NC(=O)OC(C)(C)C	> 100	> 100	> 100	> 100	> 100	> 100	> 100	> 100	> 100	> 100	–	–	–	–	–	–	–	–	–	–
C[C@H](CCC(=O)NCC(=O)O)[C@H]1CC[C@H]2[C@@H]3[C@H](O)C[C@@H]4C[C@H](O)CC[C@]4(C)[C@H]3CC[C@]12C	> 100	> 100	> 100	> 100	> 100	> 100	> 100	> 100	> 100	> 100	–	–	–	–	–	–	–	–	–	–
FC(F)(F)c1ccc2nc(Sc3ccc4ccccc4c3)cnc2c1	> 100	> 100	> 100	> 100	> 100	> 100	> 100	66.3	> 100	> 100	–	–	–	–	–	–	–	–	–	–
COc1ccc(-c2n/c(=C\c3c(O)[nH]c4ccccc34)cc3c2=Nc2ccccc2-3)cc1	2.98	3.01	3.58	4.13	4.27	2.18	24.2	2.35	3.11	3.31	1.47	1.65	1.64	1.64	2.03	0.695	0.693	0.795	1.42	1.86
O=c1[nH]c2ccc([N+](=O)[O-])cc2nc1/C=C(\O)c1ccccc1	8.87	14.8	58.3	> 100	> 100	> 100	> 100	> 100	49.4	69.8	–	–	–	–	–	–	–	–	–	–
CC1(C)CC(=O)C2=C(C1)OC1(CC2c2ccc(Cl)cc2)CC(c2ccc(Cl)cc2)C2=C(CC(C)(C)CC2=O)O1 (stereo not given)	30.6	> 83.8	42	> 100	13.6	40.6	30.7	43.8	87.5	> 51.3	–	–	–	–	–	–	–	–	–	–
CC/C(=C\c1ccc(OC)cc1)c1ccc(OC)cc1	> 100	> 100	> 100	> 100	> 100	> 100	> 100	> 100	> 100	> 100	–	–	–	–	–	–	–	–	–	–
Cc1csc(-n2c(C)nc3cc(Cl)ccc3c2=O)n1	> 100	> 100	> 100	> 100	> 100	> 100	> 100	> 100	> 100	> 100	–	–	–	–	–	–	–	–	–	–
CCOC(C)OC1CC(n2cc(C)c(=O)[nH]c2=O)OC1CO (stereo not given)	> 100	> 100	> 100	> 100	> 100	> 100	> 100	> 100	> 100	> 100	–	–	–	–	–	–	–	–	–	–
CCOC(=O)C(C/C=C/CO)N(C)C(=O)OC(C)(C)C (stereo not given)	> 100	> 100	> 100	> 100	> 100	> 100	> 100	> 100	> 100	> 100	–	–	–	–	–	–	–	–	–	–
